In patent US20250313535A1, “ALPHA 4 BETA 7 INTEGRIN MODULATORS AND USES THEREOF” (DICE MOLECULES SV, INC., priority 2022, published 2025):
pIC50: −log10 of the molar value.

Legend:
[1] = target: α4β7 integrin (Homo sapiens (Human), UniProt P13612+P26010); assay: Integrin Adhesion Assay: Protocol 1 (MAdCAM-coated plate, RPMI-8866 cells, CellTiter GLO readout); type: cell-based; conditions: integrin adhesion assay; determined by at least one of the assays described (protocol not specified)
Procedure, shortened: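 RPMI-8866 cells (2×10^6 per mL) added with compounds (1% DMSO) to MAdCAM-coated wells blocked in HEPES/NaCl buffer with 1 mM MnCl2, 0.1 mM CaCl2, 1% BSA; 1 h at 37° C, 5% CO2. After four washes, bound cells read by CellTiter GLO luminescence; % inhibition vs DMSO and control wells, 4-parameter fit.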

[2] = target: α4β1 integrin (Homo sapiens (Human), UniProt P05556+P13612); assay: Integrin Adhesion Assay: Protocol 2 (VCAM-coated plate, Jurkat cells, CellTiter GLO readout); type: cell-based; conditions: determined by at least one of the assays described (protocol not specified)
Description: α4β7 and α4β1 inhibition was evaluated in vitro using at least one of the following procedures:
Integrin Adhesion Assay: Protocol 2
VCAM (R&D Systems, 0.1 ug) was diluted in 50 μL PBS, added to each well of an opaque ELISA plate (Thermo), and incubated overnight at 4° C. Coated plates were washed once with PBS and then blocked with 200 μL of assay buffer (10 mM HEPES, 150 mM NaCl, 1 mM MnCl2, 0.1 mM CaCl2), 1% BSA) for 1 hour at 37° C. and 5% CO2. After incubation, buffer was aspirated from the plates and 50 μL of fresh assay buffer was added. Compounds were added by compounds dispenser (Tecan) and DMSO concentration was normalized to 1% across each plate. 50 μL of Jurkat cells (2×10^6 per mL) were added to each well and the plates were incubated for 1 hour at 37° C. and 5% CO2. After incubation, plates were allowed to cool to RT for 10 minutes before being washed four times in assay buffer by an automated plate washer (BioTek). After washing, 100 μL of a 1:1 mixture of assay buffer and CellTiter GLO 2.0 reagent (Promega) were added to each well. Plates were mixed for 2 minutes at 1000 rpm and then allowed to incubate an additional 10 minutes before reading out luminescence on a Tecan Spark plate reader. Raw data was converted to percent inhibition based on DMSO only and control compound wells, and curves were analyzed by 4-parameter fit within Dotmatics software.

Sequence of α4β1 integrin (P13612 34-1032): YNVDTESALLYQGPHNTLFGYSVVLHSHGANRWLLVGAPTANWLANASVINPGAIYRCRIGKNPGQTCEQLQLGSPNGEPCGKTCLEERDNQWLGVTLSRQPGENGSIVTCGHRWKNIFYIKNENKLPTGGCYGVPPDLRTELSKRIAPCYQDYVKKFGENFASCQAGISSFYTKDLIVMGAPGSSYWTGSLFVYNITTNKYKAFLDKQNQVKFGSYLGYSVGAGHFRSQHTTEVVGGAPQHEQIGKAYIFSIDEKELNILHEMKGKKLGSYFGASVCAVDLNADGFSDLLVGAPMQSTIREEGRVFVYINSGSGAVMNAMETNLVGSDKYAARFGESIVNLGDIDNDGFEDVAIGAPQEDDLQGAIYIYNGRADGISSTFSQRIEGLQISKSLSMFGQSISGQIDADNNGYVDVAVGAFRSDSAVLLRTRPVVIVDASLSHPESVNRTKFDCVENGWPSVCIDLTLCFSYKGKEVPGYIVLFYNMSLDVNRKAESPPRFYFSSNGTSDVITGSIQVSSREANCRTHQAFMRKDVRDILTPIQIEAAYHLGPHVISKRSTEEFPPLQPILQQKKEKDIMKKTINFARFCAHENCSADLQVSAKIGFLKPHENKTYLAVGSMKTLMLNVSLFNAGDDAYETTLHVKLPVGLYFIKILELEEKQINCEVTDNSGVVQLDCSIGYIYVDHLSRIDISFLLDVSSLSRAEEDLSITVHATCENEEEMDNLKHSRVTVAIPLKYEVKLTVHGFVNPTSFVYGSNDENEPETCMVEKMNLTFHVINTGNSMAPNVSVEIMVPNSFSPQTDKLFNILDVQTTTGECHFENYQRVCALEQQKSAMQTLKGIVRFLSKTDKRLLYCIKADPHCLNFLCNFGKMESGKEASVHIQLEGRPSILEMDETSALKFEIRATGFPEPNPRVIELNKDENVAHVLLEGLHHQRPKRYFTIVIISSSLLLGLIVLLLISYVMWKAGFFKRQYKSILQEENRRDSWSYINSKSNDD
Sequence of α4β1 integrin (P05556 21-798): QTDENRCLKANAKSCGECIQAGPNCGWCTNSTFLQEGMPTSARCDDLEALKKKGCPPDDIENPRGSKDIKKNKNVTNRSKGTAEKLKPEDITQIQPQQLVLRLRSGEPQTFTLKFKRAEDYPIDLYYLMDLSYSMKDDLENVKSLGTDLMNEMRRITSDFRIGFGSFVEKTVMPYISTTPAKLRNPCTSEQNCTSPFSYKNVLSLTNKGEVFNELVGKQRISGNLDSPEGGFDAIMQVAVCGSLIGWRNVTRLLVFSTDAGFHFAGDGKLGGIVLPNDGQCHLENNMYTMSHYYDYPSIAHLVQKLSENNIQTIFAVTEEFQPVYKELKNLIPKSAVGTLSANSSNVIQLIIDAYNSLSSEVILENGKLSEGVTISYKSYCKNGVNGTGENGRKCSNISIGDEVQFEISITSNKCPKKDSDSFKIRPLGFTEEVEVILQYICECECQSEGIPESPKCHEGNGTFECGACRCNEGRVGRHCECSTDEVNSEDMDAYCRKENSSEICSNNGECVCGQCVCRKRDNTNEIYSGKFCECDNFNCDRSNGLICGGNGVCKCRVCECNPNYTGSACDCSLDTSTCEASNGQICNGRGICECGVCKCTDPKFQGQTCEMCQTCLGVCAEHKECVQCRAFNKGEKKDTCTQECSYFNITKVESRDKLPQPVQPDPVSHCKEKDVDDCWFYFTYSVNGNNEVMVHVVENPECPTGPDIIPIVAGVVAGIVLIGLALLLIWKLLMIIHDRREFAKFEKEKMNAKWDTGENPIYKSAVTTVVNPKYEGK
Sequence of α4β7 integrin (P13612 34-1032): as the sequence (P13612 34-1032) above
Sequence of α4β7 integrin (P26010 20-798): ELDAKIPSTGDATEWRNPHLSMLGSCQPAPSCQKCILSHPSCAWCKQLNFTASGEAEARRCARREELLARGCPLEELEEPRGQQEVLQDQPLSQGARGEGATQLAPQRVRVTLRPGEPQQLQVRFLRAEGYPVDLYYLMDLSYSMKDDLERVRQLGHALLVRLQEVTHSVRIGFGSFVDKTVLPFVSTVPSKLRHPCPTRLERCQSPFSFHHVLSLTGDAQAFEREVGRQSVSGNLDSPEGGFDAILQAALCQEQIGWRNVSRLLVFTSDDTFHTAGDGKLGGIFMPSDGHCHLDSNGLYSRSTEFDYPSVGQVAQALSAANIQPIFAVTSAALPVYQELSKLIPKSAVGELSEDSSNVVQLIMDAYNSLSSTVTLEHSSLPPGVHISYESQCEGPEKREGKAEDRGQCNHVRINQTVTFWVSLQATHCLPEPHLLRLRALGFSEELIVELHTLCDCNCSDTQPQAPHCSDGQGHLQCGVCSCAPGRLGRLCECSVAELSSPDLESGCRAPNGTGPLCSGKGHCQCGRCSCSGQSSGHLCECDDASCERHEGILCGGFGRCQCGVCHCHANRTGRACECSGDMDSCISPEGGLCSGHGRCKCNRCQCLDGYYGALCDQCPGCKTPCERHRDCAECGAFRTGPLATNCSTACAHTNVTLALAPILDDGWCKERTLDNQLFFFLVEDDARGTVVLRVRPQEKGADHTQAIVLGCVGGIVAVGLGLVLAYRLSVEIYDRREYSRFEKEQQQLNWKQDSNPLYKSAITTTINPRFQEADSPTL

| Compound | pIC50 [1] | pIC50 [2] |
| --- | --- | --- |
| CC(=O)N1CCC(C)(C(=O)N[C@@H](Cc2cccc3c(-n4c(=O)ccn(C)c4=O)cccc23)C(=O)O)CC1 [Compound 50] | 6.00 to 7.00 | < 6.00 |
| Cn1ccc(=O)n(-c2cccc3c(C[C@H](NC(=O)C45CCC(CC4)CC5)C(=O)O)cccc23)c1=O [Compound 51] | 6.00 to 7.00 | < 6.00 |
| Cn1ccc(=O)n(-c2cccc3c(C[C@H](NC(=O)C45CCC(C)(CC4)CC5)C(=O)O)cccc23)c1=O [Compound 52] | 6.00 to 7.00 | < 6.00 |
| Cn1ccc(=O)n(-c2cccc3c(C[C@H](NC(=O)C45C[C@H]6C[C@@H](C4)C[C@@H](C5)C6)C(=O)O)cccc23)c1=O [Compound 53] | 6.00 to 7.00 | < 6.00 |
| Cn1ccc(=O)n(-c2cccc3c(C[C@H](NC(=O)C4(C)CCN(C(=O)C(F)F)CC4)C(=O)O)cccc23)c1=O [Compound 55] | 6.00 to 7.00 | < 6.00 |
| CCN1CCC(C)(C(=O)N[C@@H](Cc2cccc3c(-n4c(=O)ccn(C)c4=O)cccc23)C(=O)O)C(F)(F)C1 (stereo partly shown) [Compound 56] | 6.00 to 7.00 | < 6.00 |
| CC(C)N1CCC(C)(C(=O)N[C@@H](Cc2cccc3c(-n4c(=O)ccn(C)c4=O)cccc23)C(=O)O)CC1 [Compound 57] | 7.00 to 8.00 | < 6.00 |
| Cn1ccc(=O)n(-c2cccc3c(C[C@H](NC(=O)C4(C)CCN(CC(F)F)CC4)C(=O)O)cccc23)c1=O [Compound 58] | 7.00 to 8.00 | < 6.00 |
| CC(C)CN1CCC(C)(C(=O)N[C@@H](Cc2cccc3c(-n4c(=O)ccn(C)c4=O)cccc23)C(=O)O)CC1 [Compound 59] | 7.00 to 8.00 | < 6.00 |
| Cn1ccc(=O)n(-c2cccc3c(C[C@H](NC(=O)C4(C)CCN(C5COC5)CC4)C(=O)O)cccc23)c1=O [Compound 60] | 7.00 to 8.00 | < 6.00 |
| Cn1ccc(=O)n(-c2cccc3c(C[C@H](NC(=O)C45CCN(CC4)CC5)C(=O)O)cccc23)c1=O [Compound 62] | < 6.00 | < 6.00 |
| Cn1ccc(=O)n(-c2cccc3c(C[C@H](NC(=O)C4(Cc5ccc(F)cc5)CCC(F)(F)CC4)C(=O)O)cccc23)c1=O [Compound 64] | < 6.00 | < 6.00 |
| Cn1ccc(=O)n(-c2cccc3c(C[C@H](NC(=O)[C@]45C[C@@H]6C[C@H](C4)C(F)(F)[C@@H](C6)C5)C(=O)O)cccc23)c1=O [Compound 65] | 6.00 to 7.00 | 6.00 to 7.00 |
| Cn1c(C(F)(F)F)ccc(-c2cccc3c(C[C@H](NC(=O)c4c(F)cc(N5CCOC[C@@H]5C(F)(F)F)cc4F)C(=O)O)cccc23)c1=O [Compound 67] | > 8.00 | < 6.00 |
| Cn1ccc(=O)n(-c2cccc3c(C[C@H](NCc4ccc(N5CCOCC5)cc4)C(=O)O)cccc23)c1=O [Compound 70] | < 6.00 | < 6.00 |
| CN([C@H](CCC(=O)O)C(=O)N[C@@H](Cc1cccc2c(-n3c(=O)ccn(C)c3=O)cccc12)C(=O)O)S(=O)(=O)c1ccccc1 [Compound 72] | 6.00 to 7.00 | < 6.00 |
| Cn1ccc(C(F)(F)F)c(-c2cccc3c(C[C@H](OCc4c(F)cccc4F)C(=O)O)cccc23)c1=O [Compound 80] | < 6.00 | < 6.00 |
| Cc1cc(C(F)(F)F)c(-c2cccc3c(C[C@H](NC(=O)c4c(F)cc(N5CCOC[C@@H]5C(F)(F)F)cc4F)C(=O)O)cccc23)c(=O)n1C [Compound 113] | > 8.00 | 6.00 to 7.00 |
| Cn1ccc(C(F)(F)F)c(-c2cccc3c(C[C@H](NC(=O)c4c(F)cccc4F)C(=O)O)cccc23)c1=O [Compound 115] | 7.00 to 8.00 | 6.00 to 7.00 |
| CNC(=O)[C@@H]1CCN1C(=O)c1ccc2cc(C(=O)N[C@@H](Cc3cccc4c(-n5c(=O)ccn(C)c5=O)cccc34)C(=O)O)ccc2c1 [Compound 127] | < 6.00 | < 6.00 |
| CNC(=O)[C@@H]1CC[C@H](c2ccccc2)N1C(=O)c1ccc2cc(C(=O)N[C@@H](Cc3cccc4c(-n5c(=O)ccn(C)c5=O)cccc34)C(=O)O)ccc2c1 [Compound 128] | 6.00 to 7.00 | < 6.00 |
| O=C(N[C@@H](Cc1cccc2c(-c3nccc4ccncc34)cccc12)C(=O)O)c1c(F)cc(N2CCOC[C@@H]2C(F)(F)F)cc1CN1CCOCC1 [Compound 129] | > 8.00 | 6.00 to 7.00 |

The next lines start with the values.

| pIC50 [1] | pIC50 [2] | Compound |
| --- | --- | --- |
| 7.00 to 8.00 | < 6.00 | Cn1ccc(=O)n(-c2cccc3c(C[C@H](NC(=O)C4(C)CCC(F)(F)CC4)C(=O)O)cccc23)c1=O [Compound 63] |
| 6.00 to 7.00 | < 6.00 | CCC1(C(=O)N[C@@H](Cc2cccc3c(-n4c(=O)ccn(C)c4=O)cccc23)C(=O)O)CCC(F)(F)CC1 [Compound 66] |
| < 6.00 | < 6.00 | Cn1ccc(=O)n(-c2cccc3c(C[C@H](NCc4c(F)cccc4F)C(=O)O)cccc23)c1=O [Compound 68] |
| < 6.00 | < 6.00 | Cn1ccc(=O)n(-c2cccc3c(C[C@H](NCc4ccccc4)C(=O)O)cccc23)c1=O [Compound 69] |
| < 6.00 | < 6.00 | Cn1ccc(=O)n(-c2cccc3c(C[C@H](NC(=O)C(F)(F)Sc4ccc(Cl)cc4Cl)C(=O)O)cccc23)c1=O [Compound 76] |
| 7.00 to 8.00 | < 6.00 | Cn1ccc(=O)n(-c2cccc3c(C[C@H](NC(=O)[C@@H]4CCCN4c4ccccc4C#N)C(=O)O)cccc23)c1=O [Compound 79] |
| > 8.00 | 6.00 to 7.00 | Cn1ccc(=O)n(-c2cccc3c(C[C@H](NC(=O)c4c(F)cc(N5CCOC[C@@H]5C(F)(F)F)cc4F)C(=O)O)cccc23)c1=O [Compound 108] |
| 7.00 to 8.00 | 6.00 to 7.00 | Cn1ccc(=O)n(-c2cccc3c(C[C@H](NC(=O)c4c(F)cncc4Cl)C(=O)O)cccc23)c1=O [Compound 110] |
| > 8.00 | 6.00 to 7.00 | Cn1ccc(=O)n(-c2cccc3c(C[C@H](NC(=O)c4c(F)cc(NS(C)(=O)=O)cc4F)C(=O)O)cccc23)c1=O [Compound 111] |
| > 8.00 | < 6.00 | CC[C@@H](Nc1cc(F)c(C(=O)N[C@@H](Cc2cccc3c(-n4c(=O)ccn(C)c4=O)cccc23)C(=O)O)c(F)c1)C(F)(F)F [Compound 112] |
| > 8.00 | < 6.00 | Cn1ccc(=O)n(-c2cccc3c(C[C@H](NC(=O)c4c(F)cc(NCC(F)(F)F)cc4F)C(=O)O)cccc23)c1=O [Compound 114] |
| 7.00 to 8.00 | < 6.00 | CN(C)CCc1cc(=O)n(-c2cccc3c(C[C@H](NC(=O)c4c(F)cccc4F)C(=O)O)cccc23)c(=O)n1C [Compound 116] |
| 7.00 to 8.00 | < 6.00 | CN(C)CCc1cn(C)c(=O)n(-c2cccc3c(C[C@H](NC(=O)c4c(F)cccc4F)C(=O)O)cccc23)c1=O [Compound 117] |
| 7.00 to 8.00 | < 6.00 | Cn1cc(CCN2CC(F)C2)c(=O)n(-c2cccc3c(C[C@H](NC(=O)c4c(F)cccc4F)C(=O)O)cccc23)c1=O [Compound 118] |
| 7.00 to 8.00 | < 6.00 | CN(C)CCn1ccc(=O)n(-c2cccc3c(C[C@H](NC(=O)c4c(F)cccc4F)C(=O)O)cccc23)c1=O [Compound 119] |
| 7.00 to 8.00 | < 6.00 | Cn1ccc(=O)n(-c2cccc3c(C[C@H](NC(=O)c4c(F)ccc(NCC(F)(F)F)c4F)C(=O)O)cccc23)c1=O [Compound 120] |
| 7.00 to 8.00 | < 6.00 | Cn1ccc(=O)n(-c2cccc3c(C[C@H](NC(=O)c4cc5ncn(CC(F)(F)F)c5cc4F)C(=O)O)cccc23)c1=O [Compound 124] |
| > 8.00 | 6.00 to 7.00 | Cn1ccc(=O)n(-c2cccc3c(C[C@H](NC(=O)c4c(F)cc5c(cnn5CC(F)(F)F)c4F)C(=O)O)cccc23)c1=O [Compound 126] |
| > 8.00 | < 6.00 | Cn1ccc(=O)n(-c2cccc3c(C[C@H](NC(=O)c4c(F)cc(N(CC(F)(F)F)CC(F)(F)F)cc4F)C(=O)O)cccc23)c1=O [Compound 130] |
| 7.00 to 8.00 | 6.00 to 7.00 | Cn1ccc(=O)n(-c2cccc3c(C[C@H](NC(=O)c4c(F)cc(C#N)cc4F)C(=O)O)cccc23)c1=O [Compound 131] |
| > 8.00 | 6.00 to 7.00 | CCCS(=O)(=O)Nc1ccc(F)c(C(=O)N[C@@H](Cc2cccc3c(-n4c(=O)ccn(C)c4=O)cccc23)C(=O)O)c1F [Compound 132] |
| > 8.00 | < 6.00 | Cn1ccc(=O)n(-c2cccc3c(C[C@H](NC(=O)c4c(F)cc5ncccc5c4F)C(=O)O)cccc23)c1=O [Compound 133] |
| 7.00 to 8.00 | < 6.00 | Cn1cc(CCO)c(=O)n(-c2cccc3c(C[C@H](NC(=O)c4c(F)cccc4F)C(=O)O)cccc23)c1=O [Compound 137] |
| 7.00 to 8.00 | < 6.00 | COc1ccc(F)c(C(=O)N[C@@H](Cc2cccc3c(-n4c(=O)ccn(C)c4=O)cccc23)C(=O)O)c1F [Compound 138] |
| 7.00 to 8.00 | 6.00 to 7.00 | CCc1ccc(F)c(C(=O)N[C@@H](Cc2cccc3c(-n4c(=O)ccn(C)c4=O)cccc23)C(=O)O)c1F [Compound 139] |
